Literature values as cited in patent US7803735B2, “Hydroconversion processes employing multi-metallic catalysts and method for making thereof” (Chevron U.S.A. Inc., priority 2007, dated 2010).

Tested on: rats
Settings: single oral dose to rats; chelating agent (ligand) L

For `O=CC(=O)O` [glyoxylic], the LD50 is listed as 3000 mg/kg.
